# Data as given in US20110059947A1, “ALPHA 7 NICOTINIC AGONISTS AND ANTIPSYCHOTICS” (Targacept, Inc., priority 2008, published 2011).
# How the values were obtained:
# th(tk-)/th(tk-) mice [1] = assay: Prepulse inhibition (PPI) and acoustic startle in th(tk-)/th(tk-) and control mice; assay type: in vivo
# db/db mice = assay: Plasma glucose and body weight in obese db/db mice; assay type: in vivo; details: 1 mg/kg
# th(tk-)/th(tk-) mice [2] = assay: Social behavior, nonsocial autogrooming and open field activity; assay type: in vivo; details: 1 mg/kg i.p.
# Experimental: B. […] On testing days, each subject received three tests: a social behavior test with a female, a social behavior test with a male, and an open-field test. There was a 30-minute interval between each test. Social behavior was tested using a variant of the resident-intruder paradigm, in which a stimulus animal was introduced into the subject's homecage for three minutes. Prior to testing the subjects' home cages were not changed for at least four days to allow them to establish the cage as their territory. Female stimulus animals were singly-housed, randomly cycling C57BI/6Js (Jackson Laboratories, Bar Harbor, Me.). Each subject was tested with a different stimulus animal and each stimulus animal was used only once per testing day. Male stimulus animals were singly-housed C57BI/6Js (Jackson Laboratories, Bar Harbor, Me.). Each subject was tested with a different stimulus animal and each stimulus animal was used only once per testing day. A stimulus female was placed into the cage of wild-type (n=8) and tk-/- (n=8) subjects. After three minutes, the stimulus female was removed. Thirty minutes later a stimulus male was placed into the subject's homecage. […] The behavior of the subject was quantified from the videotape using the Observer Mobile (Noldus Information Technologies, Sterling, Va.). […] Movement was analyzed in detail using the Clever Sys. […]
# Sprague-Dawley rats = assay: Apomorphine-induced impairment of pre-pulse inhibition; assay type: in vivo, rat; details: haloperidol 0.3 mg/kg i.p., apomorphine 1.0 mg/kg s.c., p<0.001
# [3] = db/db mice with fat diet, vs vehicle-treated mice
compound,measurement,setting,value
"Cc1ccc(C(=O)N[C@@H]2C3CCN(CC3)[C@H]2Cc2cccnc2)s1 [Compound B, (2S,3R)—N-(2-((3-pyridinyl)methyl)-1-azabicyclo[2.2.2]oct-3-yl)-5-methylthiophene-2-carboxamide]",sensory gating (PPI and acoustic startle response),"th(tk-)/th(tk-) mice [1]; control (normal) mice, Compound B",no effect on control
same,deficits in sensory gating (PPI and acoustic startle response),"th(tk-)/th(tk-) mice [1]; th(tk-)/th(tk-) mice, Compound B (0.1 and 1.0 mg/kg analyzed)",reverse deficits in sensory gating
same,blood glucose levels,db/db mice; [3],significantly decreases
same,body weight gain,db/db mice; [3],significantly decreases
same,time at which effects on glucose and weight gain become apparent,"db/db mice; db/db mice, weeks of treatment",6 weeks
COc1cccc([C@H](O)C2CCN(CCc3ccc(F)cc3)CC2)c1OC [Compound M100907],PPI,"th(tk-)/th(tk-) mice [1]; control mice, M100907 any dose",no effect at any dose
same,startle response,"th(tk-)/th(tk-) mice [1]; control mice, M100907 any dose",no effect at any dose
same,PPI,"th(tk-)/th(tk-) mice [1]; transgenic mice, M100907 middle (0.1 mg/kg) and high (1 mg/kg) doses vs vehicle",increases of PPI
same,startle response,"th(tk-)/th(tk-) mice [1]; treated transgenic groups vs vehicle, M100907",significant decrease of startle response
same,time spent investigating the stimulus animal,th(tk-)/th(tk-) mice [2]; TK- mice,significantly increased
same,investigation time of stimulus animal,th(tk-)/th(tk-) mice [2]; wild-type animals,no effect on investigation time
CN1CCN(C2=Nc3cc(Cl)ccc3Nc3ccccc32)CC1 [clozapine],PPI,th(tk-)/th(tk-) mice [1]; clozapine 3 mg/kg,no effect
same,startle response,th(tk-)/th(tk-) mice [1]; clozapine 3 mg/kg,no effect
OCCN1CCN(CC/C=C2/c3ccccc3Sc3ccc(C(F)(F)F)cc32)CC1 [flupenthixol],startle response,"th(tk-)/th(tk-) mice [1]; control mice, flupenthixol 1.0 mg/kg vs saline",decreased
same,PPI,"th(tk-)/th(tk-) mice [1]; control mice, flupenthixol 0.25, 0.5, 1.0 mg/kg",no effect of dose
same,startle response,"th(tk-)/th(tk-) mice [1]; th(tk-)/th(tk-) mice, flupenthixol 1.0 mg/kg vs saline",decreased
same,PPI,"th(tk-)/th(tk-) mice [1]; th(tk-)/th(tk-) mice, flupenthixol 0.25, 0.5, 1.0 mg/kg, all three stimulus intensities, P<0.01",increased PPI
"O=C(CCCN1CCC(O)(c2ccc(Cl)cc2)CC1)c1ccc(F)cc1 [haloperidol, reference compound]",PPI deficits induced by apomorphine,Sprague-Dawley rats,significantly reversed
OCCOCCN1CCN(C2=Nc3ccccc3Sc3ccccc32)CC1 [quetiapine],startle response,"th(tk-)/th(tk-) mice [1]; control mice, quetiapine any dose",no main effect
same,PPI,"th(tk-)/th(tk-) mice [1]; control mice, quetiapine any dose examined",no significant main effect
same,PPI,"th(tk-)/th(tk-) mice [1]; th(tk-)/th(tk-) mice, quetiapine 7.0 mg/kg, p<0.001",normalized the reduced PPI
same,PPI,"th(tk-)/th(tk-) mice [1]; th(tk-)/th(tk-) mice, quetiapine lower doses (below 7.0 mg/kg)",no effect
same,startle response,"th(tk-)/th(tk-) mice [1]; transgenic mice, all doses of quetiapine vs saline, p<0.05",significant decrease in startle response
same,"PPI, main effect","th(tk-)/th(tk-) mice [1]; transgenic th(tk-)/th(tk-) mice, quetiapine 3.0 mg/kg alone",no significant main effect
